Data set [1] in a line: Solubility of the compound in 0.01N HCl at pH 2 incubated for 1 hr in shaker and subsequently equilibrated for 72 hrs by LC/MS analysis. The format is physicochemical.
The nature of data set [2]: Solubility of the compound in phosphate buffer solution at pH 7.4 incubated for 1 hr in shaker and subsequently equilibrated for 72 hrs by LC/MS analysis. The format is physicochemical.
Data set [3] can be described thus: Solubility of the compound in fasted state simulated intestinal fluid at pH 6.8 incubated for 1 hr in shaker and subsequently equilibrated for 72 hrs by LC/MS analysis. It is filed as physicochemical.
A short description of data set [4]: Apparent permeability in pig LLC-PK1 cells at 5 uM. It is filed as ADME, cell-based, Sus scrofa.
Data set [5] can be described thus: Oral bioavailability in Sprague-Dawley rat at 5 mg/kg. The format is ADME, organism-based. Particulars: in vivo.
Data set [6] is described as follows: Volume of distribution at steady state in Sprague-Dawley rat. It is filed as ADME. Particulars: in vivo, read-out: Vdss.
The nature of data set [7]: Oral bioavailability in dog. The format is ADME, organism-based, Canis lupus familiaris. Particulars: in vivo.
Data set [8] in a line: Volume of distribution at steady state in dog. The format is ADME, Canis lupus familiaris. Particulars: in vivo, read-out: Vdss.
The nature of data set [9]: Drug uptake in plasma of SCID-Beige mouse xenografted with human KMS-12-BM cells at 25 to 100 mg/kg, po administered once daily for 14 days and measured twice per week. It is filed as ADME, organism-based. Particulars: in vivo, 336 h. Background: A xenograft is tissue or cells of one species grown in another, often human tumour cells in immunodeficient mice.

In brackets after ≈: the same amount, converted by molar mass. Bounds are passed on as bounds.

For the compound `C[C@H]1NC(=O)c2cc(-c3cccc4c(=O)n(C[C@@H]5CN(C)CCO5)c(NC(C)(C)C)nc34)[nH]c21`, the thermodynamic solubility at 72 h in [1] was 500 µM (≈ 232 µg/mL); in data set [2], 122 µM (≈ 56.7 µg/mL); in data set [3] it was 283 µM (≈ 131 µg/mL).
The like results for `C[C@H]1NC(=O)c2cc(-c3cccc4c(=O)n(CC5CC5)c(NC5(C)CC5)nc34)[nH]c21` were, in that order, 214 µM (≈ 86.3 µg/mL), 13 µM (≈ 5.25 µg/mL) and 179 µM (≈ 72.2 µg/mL).
With `C[C@H]1NC(=O)c2cc(-c3cccc4c(=O)n(C)c(NC(C)(C)C)nc34)[nH]c21`, the thermodynamic solubility at 72 h is 60 µM (≈ 21.9 µg/mL) in data set [1], 23 µM (≈ 8.41 µg/mL) in data set [2] and 104 µM (≈ 38 µg/mL) in [3]. The Papp at 5 µM in [4] was 46 ×10⁻⁶ cm/s.
For the compound `C[C@H]1NC(=O)c2cc(-c3cccc4c(=O)n(CC5(O)CC5)c(NC5(C)CC5)nc34)[nH]c21`, the solubility (thermodynamic) at 72 h in data set [1] was 43 µM (≈ 18 µg/mL); in data set [2] it was below 5 µM; in data set [3] it was 15 µM (≈ 6.29 µg/mL).
Turning to `CC(c1cn(C)cn1)n1c(NC(C)(C)C)nc2c(-c3cc4c([nH]3)[C@@H](C)NC4=O)cccc2c1=O` (stereo not given in full), the thermodynamic solubility at 72 h in [1] is 423 µM (≈ 194 µg/mL); in data set [2], 86 µM (≈ 39.5 µg/mL); in data set [3] it was 489 µM (≈ 225 µg/mL).
Consider `C[C@H]1NC(=O)c2cc(-c3cccc4c(=O)n(CC5(O)CC5)c(NC(C)(C)C)nc34)[nH]c21`, for which the solubility (thermodynamic) at 72 h in [1], in [2] and in [3] was below 5 µM in each case.
Turning to `C[C@H]1NC(=O)c2cc(-c3cccc4c(=O)n(Cc5cn(C)cn5)c(NC(C)(C)C)nc34)[nH]c21`, the thermodynamic solubility at 72 h was 94 µM (≈ 41.9 µg/mL) in data set [1], 22 µM (≈ 9.8 µg/mL) in data set [2] and 131 µM (≈ 58.4 µg/mL) in [3].
With `C[C@H]1NC(=O)c2cc(-c3cccc4c(=O)n(C5(C)CC5)c(NC(C)(C)C)nc34)[nH]c21`, the solubility (thermodynamic) at 72 h is below 5 µM in data set [1], below 5 µM in data set [2] and 36 µM (≈ 14.6 µg/mL) in data set [3].
Turning to `C[C@H]1NC(=O)c2cc(-c3cccc4c(=O)n(C[C@@H]5CCCO5)c(NC(C)(C)C)nc34)[nH]c21`, the values for the thermodynamic solubility at 72 h in data set [1], in [2] and in [3] were 28 µM (≈ 12.2 µg/mL), 12 µM (≈ 5.23 µg/mL) and 15 µM (≈ 6.53 µg/mL), respectively.
For `C[C@H]1NC(=O)c2cc(-c3cccc4c(=O)n(CC5COC5)c(NC(C)(C)C)nc34)[nH]c21`, the solubility (thermodynamic) at 72 h in data set [1] was 14 µM (≈ 5.9 µg/mL); in [2] it was 6 µM (≈ 2.53 µg/mL); in data set [3] it was 32 µM (≈ 13.5 µg/mL).
The like results for `C[C@H](c1cn(C)cn1)n1c(NC2(C)CC2)nc2c(-c3cc4c([nH]3)[C@@H](C)NC4=O)cccc2c1=O` were, in that order, 485 µM (≈ 222 µg/mL), 53 µM (≈ 24.2 µg/mL) and 435 µM (≈ 199 µg/mL).
For the compound `CC(C)n1c(NC(C)(C)C)nc2c(-c3cc4c([nH]3)[C@@H](C)NC4=O)cccc2c1=O`, the results for the solubility (thermodynamic) at 72 h in data set [1], in [2] and in [3] were 26 µM (≈ 10.2 µg/mL), 11 µM (≈ 4.33 µg/mL) and 68 µM (≈ 26.8 µg/mL), respectively.
The like results for `C[C@H]1NC(=O)c2cc(-c3cccc4c(=O)n(C[C@H]5CN(C)CCO5)c(NC(C)(C)C)nc34)[nH]c21` were, in that order, 256 µM (≈ 119 µg/mL), below 5 µM and below 5 µM.
In the case of `CC(c1cn(C)cn1)n1c(NC2(C)CC2)nc2c(-c3cc4c([nH]3)[C@@H](C)NC4=O)cccc2c1=O` (mixture of isomers), the solubility (thermodynamic) at 72 h in data set [1] was 500 µM; in [2], 52 µM; in [3], 500 µM.
As to `C[C@H]1NC(=O)c2cc(-c3cccc4c(=O)n(CC5(N)CC5)c(NC(C)(C)C)nc34)[nH]c21`, the solubility (thermodynamic) at 72 h is 500 µM (≈ 210 µg/mL) in data set [1], below 5 µM in [2] and 42 µM (≈ 17.7 µg/mL) in data set [3].
As to `C[C@H]1NC(=O)c2cc(-c3cccc4c(=O)n(C5CC5)c(NC(C)(C)C)nc34)[nH]c21`, the thermodynamic solubility at 72 h in data set [1] was 95 µM (≈ 37.2 µg/mL); in data set [2] it was 13 µM (≈ 5.09 µg/mL); in data set [3], 175 µM (≈ 68.5 µg/mL).
Consider `C[C@H]1NC(=O)c2cc(-c3cccc4c(=O)n(C5CC5)c(NC5(C)CC5)nc34)[nH]c21`, for which the solubility (thermodynamic) at 72 h in data set [1] was 458 µM (≈ 178 µg/mL); in data set [2] it was 78 µM (≈ 30.4 µg/mL); in data set [3], 144 µM (≈ 56.1 µg/mL). The same compound returned a bioavailability in data set [5] of 68%. In addition, in data set [4], the Papp at 5 µM turned out to be 23 ×10⁻⁶ cm/s. The Vd in data set [6] was found to be 1.2 L/kg.
In the case of `C[C@H]1NC(=O)c2cc(-c3cccc4c(=O)n(CC5CC5)c(NC(C)(C)C)nc34)[nH]c21`, the figures for the thermodynamic solubility at 72 h in data set [1], in data set [2] and in data set [3] were below 5 µM, below 5 µM and 12 µM (≈ 4.87 µg/mL), respectively.
Take `C[C@H]1NC(=O)c2cc(-c3cccc4c(=O)n([C@@H](C)c5cn(C)cn5)c(NC5(C)CC5)nc34)[nH]c21`: the thermodynamic solubility at 72 h in data set [1] is 464 µM (≈ 212 µg/mL); in [2], 60 µM (≈ 27.5 µg/mL); in data set [3] it was 469 µM (≈ 215 µg/mL). In data set [5], this compound registered a bioavailability of 19%. Further, the Papp at 5 µM in data set [4] amounted to 35 ×10⁻⁶ cm/s. In addition, the Vd in [6] worked out at 1 L/kg.
Consider `C[C@H]1NC(=O)c2cc(-c3cccc4c(=O)n(C(C)(C)C)c(NC5(C)CC5)nc34)[nH]c21`, for which the thermodynamic solubility at 72 h is 495 µM (≈ 201 µg/mL) in data set [1], below 5 µM in data set [2] and 326 µM (≈ 132 µg/mL) in data set [3].
Turning to `C[C@H]1NC(=O)c2cc(-c3cccc4c(=O)n(C[C@H]5CCCO5)c(NC(C)(C)C)nc34)[nH]c21`, the thermodynamic solubility at 72 h was below 5 µM in data set [1], 19 µM (≈ 8.28 µg/mL) in [2] and 60 µM (≈ 26.1 µg/mL) in data set [3].
For `C[C@H]1NC(=O)c2cc(-c3cccc4c(=O)n(CC(C)(C)N)c(NC(C)(C)C)nc34)[nH]c21`, the results for the thermodynamic solubility at 72 h in data set [1], in data set [2] and in data set [3] were 347 µM (≈ 147 µg/mL), 26 µM (≈ 11 µg/mL) and 131 µM (≈ 55.4 µg/mL), respectively.
Turning to `C[C@H]1NC(=O)c2cc(-c3cccc4c(=O)n(C5CCC5)c(NC5(C)CC5)nc34)[nH]c21`, the solubility (thermodynamic) at 72 h is 441 µM (≈ 178 µg/mL) in [1], below 5 µM in data set [2] and 379 µM (≈ 153 µg/mL) in data set [3].
For the compound `C[C@H]1NC(=O)c2cc(-c3cccc4c(=O)n(C)c(NC5(C)CC5)nc34)[nH]c21`, the solubility (thermodynamic) at 72 h in [1] is 500 µM (≈ 182 µg/mL); in [2] it was 56 µM (≈ 20.4 µg/mL); in data set [3] it was 344 µM (≈ 125 µg/mL). The apparent permeability (Papp) at 5 µM in data set [4] is 31 ×10⁻⁶ cm/s.
For the compound `C[C@H]1NC(=O)c2cc(-c3cccc4c(=O)n(CC5(N)CC5)c(NC5(C)CC5)nc34)[nH]c21`, the thermodynamic solubility at 72 h in data set [1] was 454 µM (≈ 190 µg/mL); in [2], 134 µM (≈ 56.1 µg/mL); in data set [3] it was 280 µM (≈ 117 µg/mL).
Consider `C[C@H]1NC(=O)c2cc(-c3cccc4c(=O)n(C5(C)CC5)c(NC5(C)CC5)nc34)[nH]c21`, for which the values for the bioavailability in [7] and in data set [5] were 56% and 85%, respectively. The solubility (thermodynamic) at 72 h is 490 µM (≈ 198 µg/mL) in data set [1], 31 µM (≈ 12.5 µg/mL) in data set [2] and 185 µM (≈ 74.6 µg/mL) in [3]. The results for the Vd in data set [8] and in [6] were 2.1 L/kg and 1.7 L/kg, respectively. In addition, the Papp at 5 µM in [4] was 32 ×10⁻⁶ cm/s. Also, the Drug uptake result in [9] is listed as “Dose-dependent effect”.
Regarding `C[C@H]1NC(=O)c2cc(-c3cccc4c(=O)n(C(C)(C)C)c(NC(C)(C)C)nc34)[nH]c21`, the solubility (thermodynamic) at 72 h in data set [1] was below 5 µM; in data set [2] it was below 5 µM; in data set [3], 58 µM (≈ 23.6 µg/mL).

Broadly, the solubility (thermodynamic) is solubility found after equilibrating the solid with the medium. By Papp is commonly meant a coefficient for how fast a substance crosses the barrier. In general, bioavailability refers to dose-corrected exposure relative to a reference, in per cent. A lower bioavailability goes with little systemic uptake.

The values are drawn from ChEMBL document CHEMBL4368910, “Discovery of ( R)-8-(6-Methyl-4-oxo-1,4,5,6-tetrahydropyrrolo[3,4- b]pyrrol-2-yl)-3-(1-methylcyclopropyl)-2-((1-methylcyclopropyl)amino)quinazolin-4(3 H)-one, a Potent and Selective Pim-1/2 Kinase Inhibitor for Hematological Malignancies” (J Med Chem, 2019).
